Measurements as given in patent publication US10940139B2, “Compounds that interact with the Ras superfamily for the treatment of cancers, inflammatory diseases, rasopathies, and fibrotic disease” (Shy Therapeutics LLC, priority 2017, dated 2021).

What follows are compounds tested against KRas G12D/Q61H double mutant (Homo sapiens (Human), UniProt P01116, G12D/Q61H) (assay: Ras GTP binding domain inhibition assay (labeled GTP)). Details: 20 μM compound; read-out: % Inhibition at 20 μM KRas G12D Q61H.
Sequence of KRas G12D/Q61H double mutant (P01116-2 other isoform, or with tags, fused parts or gaps G12D/Q61H): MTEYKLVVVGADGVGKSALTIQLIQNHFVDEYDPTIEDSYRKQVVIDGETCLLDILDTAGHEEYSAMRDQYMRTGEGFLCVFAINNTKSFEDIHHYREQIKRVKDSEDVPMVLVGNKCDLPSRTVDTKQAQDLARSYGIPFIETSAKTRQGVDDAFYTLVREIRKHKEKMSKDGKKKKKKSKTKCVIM
Procedure: Buffer-I: • 50 mM Tris, pH 7.5 • 150 mM NaCl (optional) • 1 mM MgCl2 • 1 mM DTT. • KRas G12D mutant protein was expressed as a His-tagged protein. Purified His-KRas G12D protein was diluted in buffer-I to a final concentration of 3-10 μg/ml. • 200 μl of the diluted His-KRas G12D protein was added to a nickel coated 96 well plate and incubated overnight at 4° C. • The next day, wells were washed 3× in 200 μl of Buffer-I. • Then 200 μl of Buffer-I were added to each well in the presence of 1% DMSO. • Tested compounds were added to the protein-coated wells at a concentration of 20 μM, and incubated for 3 hours at room temperature. While performing IC50 measurements a serial dilution of all tested concentrations was prepared.
Then 22 μl of Cy3-GTP or Cy5-GTP was added to each well. The labeled GTP was incubated for 45 min. at room temperature. • Following GTP incubation, wells were washed 3× in Buffer-I, and 200 μl of Buffer-I were added to each well. • Following washes, the amount of bound labeled-GTP was measured with an Eppendorf AF2200 plate reader.
By substituting KRas G12D mutant protein with KRas G12C mutant, KRas wild type, KRas Q61H mutant, KRas G12D/Q61H double mutant or KRas G12C/Q61H double mutant under the assay conditions described above, KRas G12C mutant KRas wild type, KRas Q61H mutant, KRas G12D/Q61H double mutant and KRas G12C/Q61H double mutant inhibition, respectively, were each determined.
With Cc1ccc(S(=O)(=O)NC(c2ccccc2)c2ccccn2)c(Cl)c1 (stereo not shown) the inhibition at 20 µM was 25 to 50%. c1ccc(OCc2nc(CNCCn3cccn3)cs2)cc1 was tested, and the inhibition at 20 µM was 25 to 50%. For Cc1cc(C2CCCN2c2nccc(C(F)(F)F)n2)no1 (stereo not shown), the inhibition at 20 µM was 25 to 50%. Cc1cc(NCCNC(=O)Cc2ccccc2)nc(-c2ccccn2)n1 showed an inhibition at 20 µM of 25 to 50%. Compound CC(C(N)=O)N1CCOC(c2nc(-c3ccccc3)cs2)C1 (stereo not shown) has an inhibition at 20 µM of 25 to 50%. c1ccc(Oc2ccccc2NCc2nc(C3CC3)no2)cc1 was tested, and the inhibition at 20 µM was 25 to 50%. Compound CCOC(=O)c1sc(N(C2CC2)S(=O)(=O)c2cc(F)ccc2C)nc1C has an inhibition at 20 µM of 25 to 50%. Compound CC1=C(c2ccccc2)C2C(=O)NC(c3cnccn3)=NC2S1 (stereo not shown) has an inhibition at 20 µM of 25 to 50%. Cc1nc(CN(Cc2ccccc2)Cc2ccccc2)no1 showed an inhibition at 20 µM of 25 to 50%. For Cc1ccc(-c2c(C)sc3nc(-c4cnccn4)[nH]c(=O)c23)cc1, the inhibition at 20 µM was 25 to 50%. CCN1CCN(c2nc(-c3ccccn3)nc3sc(-c4ccccc4)cc23)CC1 was tested, and the inhibition at 20 µM was 25 to 50%. CN(C)S(=O)(=O)c1ccc(N2CCCC2)c(C(=O)NCCCN2CCCC2=O)c1 gave an inhibition at 20 µM of 25 to 50%. Work on CCN(CC)S(=O)(=O)c1ccc(N2CCCC2)c(C(=O)NCCCn2cnc3ccccc32)c1 yielded an inhibition at 20 µM of 25 to 50%. With OCC1CCCN(c2nc(-c3ccccn3)nc3scc(-c4ccccc4)c23)C1 (stereo not shown) the inhibition at 20 µM was 25 to 50%. With O=S(=O)(NC(c1ccccc1)c1ccccn1)c1cc(C(F)(F)F)ccc1Cl (stereo not shown) the inhibition at 20 µM was 25 to 50%. Cc1c(C(=O)Nc2nnc(-c3ccccn3)[nH]2)cnn1-c1ccc(C(F)(F)F)cn1 gave an inhibition at 20 µM of 25 to 50%. With CC(OCC1CC1)C(=O)Nc1nnc(-c2ccccn2)[nH]1 (stereo not shown) the inhibition at 20 µM was 25 to 50%. For C=CCc1ccc(OCCn2c(CN3CCOCC3)nc3ccccc32)c(OC)c1, the inhibition at 20 µM was 25 to 50%. For Cc1nc(-c2ccccn2)nc(NCCS(C)(=O)=O)c1C, the inhibition at 20 µM was 25 to 50%. Cc1ccc(C)c(OCc2nnc(SCC(C)C(=O)c3ccc(F)c(F)c3)o2)c1 (stereo not shown) was tested, and the inhibition at 20 µM was 25 to 50%. CC(C)Cn1cnnc1C1CCCN1c1ccc(C#N)c(C(F)(F)F)c1 (stereo not shown) gave an inhibition at 20 µM of 25 to 50%. Compound Cc1sc(NC2CCCCC2)nc1-c1ccc(F)c(F)c1 has an inhibition at 20 µM of 25 to 50%. For COCc1nc(C)c(C(=O)Nc2nnc(-c3ccccn3)[nH]2)s1, the inhibition at 20 µM was 25 to 50%. Compound CCOC(=O)c1ccc(C(=O)NCCc2ccc(C(F)(F)F)cc2)nc1C has an inhibition at 20 µM of 25 to 50%. N#Cc1ccc(OCCSc2nnc(COc3ccc(F)cc3)o2)cc1 gave an inhibition at 20 µM of 25 to 50%. CN1CCN(Cc2nnc(-c3ccccc3Cl)o2)c2ccc(F)cc21 showed an inhibition at 20 µM of 25 to 50%. In the case of COc1cc(C(=O)Nc2nnc(-c3ccccn3)[nH]2)ccc1OCC(N)=O, the inhibition at 20 µM is reported as 25 to 50%. In the case of Cc1n[nH]c(C2CN(C(C)c3ccncc3)CCO2)n1 (stereo not shown), the inhibition at 20 µM is reported as 25 to 50%. Compound COC(=O)c1cccc(NCc2nc(CC(C)C)no2)c1 has an inhibition at 20 µM of 25 to 50%. CN(Cc1ccc(C(=O)NCC(F)(F)F)cc1)Cc1ccc([N+](=O)[O-])cc1 was tested, and the inhibition at 20 µM was 25 to 50%. In the case of Cc1[nH]c(-c2ccccn2)nc(=O)c1C, the inhibition at 20 µM is reported as 25 to 50%. O=C(c1cccc(S(=O)(=O)N2CCOCC2)c1)N1N=C(c2ccccc2)CC1(O)C(F)(F)F (stereo not shown) was tested, and the inhibition at 20 µM was 25 to 50%. O=C(Cc1ccc(OC(F)(F)F)cc1)Nc1nnc(-c2ccccn2)[nH]1 showed an inhibition at 20 µM of 25 to 50%. Compound Cc1ccc2cccc(OS(=O)(=O)N3CCOCC3)c2n1 has an inhibition at 20 µM of 25 to 50%. Work on COC(=O)CCN(Cc1ccc(Oc2ccc(OC)cc2)cc1)C1CCOCC1 yielded an inhibition at 20 µM of 1 to 25%. Work on O=c1[nH]c(-c2cnc(Oc3ccccc3)cn2)nc2ccsc12 yielded an inhibition at 20 µM of 1 to 25%. Compound Fc1ccc(OCCSc2nnc(C3COc4ccccc4O3)o2)cc1 (stereo not shown) has an inhibition at 20 µM of 1 to 25%. O=c1[nH]c(-c2cnccn2)nc2ccccc12 gave an inhibition at 20 µM of 1 to 25%. CN(Cc1nc2ccccc2n1C)C(=O)c1cccc(Cl)n1 showed an inhibition at 20 µM of 1 to 25%. For O=C(Nc1ccc(N2CCOCC2)cc1)c1ccccc1OCCOc1ccccc1, the inhibition at 20 µM was 1 to 25%. Compound N#Cc1ccc(N2CCCC2c2ccco2)cc1C(F)(F)F (stereo not shown) has an inhibition at 20 µM of 1 to 25%. Cc1nc(CC(C)C)sc1C(=O)Nc1nnc(-c2ccccn2)[nH]1 showed an inhibition at 20 µM of 1 to 25%. OCCCSCCNc1nc(-c2ccccn2)nc2c1CCC2 was tested, and the inhibition at 20 µM was 1 to 25%. Work on COc1ccc(OCCn2c(CN3CCCCC3)nc3ccccc32)cc1 yielded an inhibition at 20 µM of 1 to 25%. Work on Cn1nc(-c2ccncc2)cc1NC(=O)c1cccnc1 yielded an inhibition at 20 µM of 1 to 25%. CC(C)N1C(=O)CC(Nc2cc(C(F)(F)F)nc(-c3ccccn3)n2)C1=O (stereo not shown) showed an inhibition at 20 µM of 1 to 25%. With O=C(c1csc(-c2ncccn2)n1)N1CCC(c2ccc(O)cc2)CC1 the inhibition at 20 µM was 1 to 25%. CN(C(=O)c1ccc(COc2ccc(Br)cc2)o1)C1CCS(=O)(=O)C1 (stereo not shown) was tested, and the inhibition at 20 µM was 1 to 25%. In the case of Cc1ccc(C(C)C)cc1OS(=O)(=O)N1CCc2ccccc2C1, the inhibition at 20 µM is reported as 1 to 25%. For Cc1cccc(OCCNC(=O)c2cc(S(=O)(=O)N3CCOCC3)ccc2N2CCOCC2)c1, the inhibition at 20 µM was 1 to 25%. CCN(CC)S(=O)(=O)c1ccc(N2CCOCC2)c(C(=O)NCCCn2cnc3ccccc32)c1 was tested, and the inhibition at 20 µM was 1 to 25%. In the case of COc1ccc(-c2nc(C(=O)NCc3ccccn3)cs2)cc1, the inhibition at 20 µM is reported as 1 to 25%. In the case of Cc1ccc(NC(=O)c2sc3nc(-c4ncccn4)[nH]c(=O)c3c2C)c(C)c1, the inhibition at 20 µM is reported as 1 to 25%. Compound Cc1ccc(OCc2nnc(SCC3CCCCO3)o2)cc1 (stereo not shown) has an inhibition at 20 µM of 1 to 25%. CN(Cc1ccc(OCc2ccccn2)cc1)Cc1ccccc1OC(F)(F)F gave an inhibition at 20 µM of 1 to 25%. With CN(CC(=O)N1CCOCC1)C(=O)c1ccc(COc2ccc(F)cc2)o1 the inhibition at 20 µM was 1 to 25%. In the case of COC(=O)c1ccc(C(=O)NCC(c2ccccc2)N2CCOCC2)nc1 (stereo not shown), the inhibition at 20 µM is reported as 1 to 25%. Work on Cc1ccccc1CC(=O)N(CC(F)(F)F)C1CCCOC1 (stereo not shown) yielded an inhibition at 20 µM of 1 to 25%. In the case of C=CCn1c(SCc2csc(-c3cccc(OC)c3OC)n2)nc2ccccc21, the inhibition at 20 µM is reported as 1 to 25%. Work on O=C(Nc1nnc(-c2ccccn2)[nH]1)c1cccc(Nc2ncccn2)c1 yielded an inhibition at 20 µM of 1 to 25%. Work on COc1ccccc1CN(Cc1cccs1)C(=O)c1ccc(S(=O)(=O)N2CCOCC2)cc1 yielded an inhibition at 20 µM of 1 to 25%. Work on c1cc2c(cc1-c1csc(C3CC3)n1)CCC2 yielded an inhibition at 20 µM of 1 to 25%. O=C1NCCCC1Nc1cc(C(F)(F)F)nc(-c2ccccn2)n1 (stereo not shown) gave an inhibition at 20 µM of 1 to 25%. Cc1ccccc1OCCn1c(CN2CCOCC2)nc2ccccc21 gave an inhibition at 20 µM of 1 to 25%. For CCN(C(=O)c1ccc(COc2ccccc2F)o1)c1ccccc1C, the inhibition at 20 µM was 1 to 25%. In the case of COCc1ccc(C(=O)N(Cc2cccs2)Cc2ccccc2OC)cc1, the inhibition at 20 µM is reported as 1 to 25%. O=C(c1ccc(COc2ccccc2F)o1)N1CCOc2ccccc21 gave an inhibition at 20 µM of 1 to 25%. Work on CC(=O)Nc1cccc(C(C)N(Cc2ccccc2)Cc2nc(-c3ccc(Cl)cc3)no2)c1 (stereo not shown) yielded an inhibition at 20 µM of 1 to 25%. Compound CCOCCCNC(=O)c1cc(S(=O)(=O)N(CC)CC)ccc1NCCOC has an inhibition at 20 µM of 1 to 25%. For CCc1cc(NC(C)C(=O)N2CCOCC2)nc(-c2ccccn2)n1 (stereo not shown), the inhibition at 20 µM was 1 to 25%. Compound C=CCNC(=O)CN1CCOC(c2nc(-c3ccccc3)cs2)C1 (stereo not shown) has an inhibition at 20 µM of 1 to 25%. Cc1nc(-c2ccccn2)nc(NC(C)CO)c1C (stereo not shown) showed an inhibition at 20 µM of 1 to 25%. Compound COc1ccccc1CC(=O)N(CC(F)(F)F)C1CCCOC1 (stereo not shown) has an inhibition at 20 µM of 1 to 25%. For CN(C(=O)c1ccc(COc2ccccc2)o1)C1CCCCC1, the inhibition at 20 µM was 1 to 25%. CC(C)CN1CC(C(=O)Nc2nc(-c3ccccn3)cs2)CC1=O (stereo not shown) showed an inhibition at 20 µM of 1 to 25%. With COc1ccccc1CN(Cc1cccs1)C(=O)c1ccc(-c2nc(C)no2)cc1 the inhibition at 20 µM was 1 to 25%. For COc1ccccc1-c1nnc(CNc2ccc(Cl)cc2Cl)o1, the inhibition at 20 µM was 1 to 25%. FC(F)(F)c1ccnc(N2CCCC2c2cccs2)n1 (stereo not shown) showed an inhibition at 20 µM of 1 to 25%. CC(C)Cc1cc(C(=O)Nc2cc(-c3ccncc3)nn2C)[nH]n1 was tested, and the inhibition at 20 µM was 1 to 25%.
